Data taken from patent US9120812B2, “Pyrimidooxazocine derivatives as mTOR-inhibitors” (SANOFI, priority 2012, dated 2015).

Experiments:
[1] = biological target: mTOR (human recombinant aa mTOR 1360-2549) (Homo sapiens (Human), UniProt P42345); assay: mTOR enzymatic test by TR-FRET (phosphorylation of GFP-4EBP1); type: biochemical
Procedure, shortened: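 After a 30 min room-temperature kinase reaction, EDTA (10 mM final) and Tb-labelled phospho-Thr46 antibody (2 nM final) were added and incubated 60 min. Energy transfer from Tb to phosphorylated GFP-4EBP1 was read at 340 nm excitation, emissions 490/520 nm. Values derive from the 520/490 fluorescence ratio.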

PI3Kα (p110α/p85α) = PI3Kα (p110α/p85α) (Homo sapiens (Human), UniProt P42336); assay: PI3Kα enzymatic test by measuring the consumption of ATP; type: biochemical
Sequence of PI3Kα (p110α/p85α) (P42336 whole entry): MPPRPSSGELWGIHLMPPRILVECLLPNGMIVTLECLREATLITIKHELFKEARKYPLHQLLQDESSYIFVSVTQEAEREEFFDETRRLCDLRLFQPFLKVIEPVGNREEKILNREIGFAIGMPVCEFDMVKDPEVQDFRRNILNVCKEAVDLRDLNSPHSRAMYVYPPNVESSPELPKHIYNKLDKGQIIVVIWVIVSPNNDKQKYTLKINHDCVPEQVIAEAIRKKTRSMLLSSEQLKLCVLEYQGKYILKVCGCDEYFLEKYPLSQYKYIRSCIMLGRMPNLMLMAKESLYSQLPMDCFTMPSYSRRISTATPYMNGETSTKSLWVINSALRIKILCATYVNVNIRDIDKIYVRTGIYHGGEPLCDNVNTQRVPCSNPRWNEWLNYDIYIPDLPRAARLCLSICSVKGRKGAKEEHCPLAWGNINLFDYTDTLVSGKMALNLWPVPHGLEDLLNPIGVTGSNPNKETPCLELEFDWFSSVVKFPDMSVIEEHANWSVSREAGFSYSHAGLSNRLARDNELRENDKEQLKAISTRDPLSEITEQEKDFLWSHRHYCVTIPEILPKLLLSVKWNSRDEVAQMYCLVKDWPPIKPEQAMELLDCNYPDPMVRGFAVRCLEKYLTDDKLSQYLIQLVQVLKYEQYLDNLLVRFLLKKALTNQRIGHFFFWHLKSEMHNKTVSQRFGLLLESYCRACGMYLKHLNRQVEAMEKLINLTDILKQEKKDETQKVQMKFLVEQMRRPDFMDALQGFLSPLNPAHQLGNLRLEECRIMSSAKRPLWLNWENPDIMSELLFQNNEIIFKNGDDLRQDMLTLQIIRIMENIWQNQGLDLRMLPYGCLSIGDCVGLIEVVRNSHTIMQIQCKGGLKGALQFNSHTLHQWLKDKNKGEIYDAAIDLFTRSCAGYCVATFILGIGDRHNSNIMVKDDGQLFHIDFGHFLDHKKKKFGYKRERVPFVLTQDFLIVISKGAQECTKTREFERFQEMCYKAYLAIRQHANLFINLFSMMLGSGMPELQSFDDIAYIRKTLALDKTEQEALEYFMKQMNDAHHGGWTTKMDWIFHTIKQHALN
Sequence of PI3Kα (p110α/p85α) (P27986 whole entry partner): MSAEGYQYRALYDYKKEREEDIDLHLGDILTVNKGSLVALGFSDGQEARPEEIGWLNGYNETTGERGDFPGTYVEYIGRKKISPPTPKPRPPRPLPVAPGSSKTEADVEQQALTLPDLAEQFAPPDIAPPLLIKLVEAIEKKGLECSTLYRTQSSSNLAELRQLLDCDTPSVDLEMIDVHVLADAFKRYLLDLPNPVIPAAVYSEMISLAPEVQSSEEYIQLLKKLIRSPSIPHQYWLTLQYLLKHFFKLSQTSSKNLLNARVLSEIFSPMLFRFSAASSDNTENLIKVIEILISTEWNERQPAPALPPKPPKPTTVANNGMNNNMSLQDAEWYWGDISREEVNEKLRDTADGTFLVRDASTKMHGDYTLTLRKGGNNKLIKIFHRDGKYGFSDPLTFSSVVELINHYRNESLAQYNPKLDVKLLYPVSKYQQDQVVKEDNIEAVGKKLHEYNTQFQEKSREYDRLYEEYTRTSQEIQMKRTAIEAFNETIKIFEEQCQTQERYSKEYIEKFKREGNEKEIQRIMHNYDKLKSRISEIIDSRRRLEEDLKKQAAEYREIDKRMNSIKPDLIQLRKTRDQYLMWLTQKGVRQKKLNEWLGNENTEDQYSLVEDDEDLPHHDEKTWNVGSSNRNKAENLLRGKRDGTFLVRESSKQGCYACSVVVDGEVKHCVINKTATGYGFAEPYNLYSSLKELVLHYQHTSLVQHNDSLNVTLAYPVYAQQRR
Procedure, shortened: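 ATP consumption read out by KinaseGlo luminescence after a 90 min reaction of 1.7 μg/ml PI3Kα (p110α/p85α) with 2 μM ATP and 50 μM PIP2, buffered at pH 7.5 (Tris, 10 mM MgCl2, 1 mM EGTA, 0.03% Chaps, 1 mM DTT). Threefold dilution series over ≥10 000-fold range yield IC50.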

U87MG tumour cells = assay: Test of in vitro proliferation of U87MG tumour cells; type: cell-based; settings: Homo sapiens, U-87 MG, 72 h, U87MG cells, 72 hours; read-out: U87 Cell Proliferation IC50
Experimental: Model 4: Test of in vitro Proliferation of U87MG Tumour Cells.
The cell growth is determined with the reagent CellTiter 96 AQueous One Solution Cell Proliferation Assay from Promega (Cat. No. G3581).

Akt-pS473 in U87MG cells = settings: Homo sapiens, U-87 MG, read-out: U87 Akt-pS473 % Inhibition or IC50, nM (IC50), U87MG cells

Sequence of mTOR (human recombinant aa mTOR 1360-2549) (P42345 1360-2549): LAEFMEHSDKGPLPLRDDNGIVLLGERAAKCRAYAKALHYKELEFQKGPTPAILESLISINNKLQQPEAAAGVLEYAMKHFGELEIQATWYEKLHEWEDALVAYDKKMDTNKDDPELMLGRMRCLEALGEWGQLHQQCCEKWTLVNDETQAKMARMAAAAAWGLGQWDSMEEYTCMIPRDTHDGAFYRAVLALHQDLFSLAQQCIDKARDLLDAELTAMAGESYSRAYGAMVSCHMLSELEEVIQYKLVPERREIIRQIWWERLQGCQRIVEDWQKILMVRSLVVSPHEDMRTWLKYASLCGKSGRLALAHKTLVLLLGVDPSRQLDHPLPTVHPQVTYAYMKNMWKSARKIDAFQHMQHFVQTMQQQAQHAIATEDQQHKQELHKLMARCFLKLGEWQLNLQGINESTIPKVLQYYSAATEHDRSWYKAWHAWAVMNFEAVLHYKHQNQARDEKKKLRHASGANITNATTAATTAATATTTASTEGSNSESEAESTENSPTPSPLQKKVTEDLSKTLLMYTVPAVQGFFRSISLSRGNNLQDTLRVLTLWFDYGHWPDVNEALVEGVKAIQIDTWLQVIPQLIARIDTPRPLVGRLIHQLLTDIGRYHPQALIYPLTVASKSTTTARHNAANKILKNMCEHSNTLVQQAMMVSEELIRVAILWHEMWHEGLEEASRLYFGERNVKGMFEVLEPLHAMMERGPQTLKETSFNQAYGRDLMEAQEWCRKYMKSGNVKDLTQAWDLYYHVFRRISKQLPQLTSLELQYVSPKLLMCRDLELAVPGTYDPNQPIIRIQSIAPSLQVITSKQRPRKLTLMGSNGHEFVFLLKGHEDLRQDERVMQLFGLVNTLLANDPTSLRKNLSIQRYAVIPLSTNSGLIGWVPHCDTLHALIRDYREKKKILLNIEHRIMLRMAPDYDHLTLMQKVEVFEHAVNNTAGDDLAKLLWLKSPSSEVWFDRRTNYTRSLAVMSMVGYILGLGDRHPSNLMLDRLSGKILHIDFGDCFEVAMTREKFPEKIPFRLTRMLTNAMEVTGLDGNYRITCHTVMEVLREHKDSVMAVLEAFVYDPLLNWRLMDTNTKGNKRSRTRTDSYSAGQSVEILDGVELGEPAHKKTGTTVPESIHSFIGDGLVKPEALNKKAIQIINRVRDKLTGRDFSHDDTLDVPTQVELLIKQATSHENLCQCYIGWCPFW

Structure (SMILES) | IC50 [1] [nM] | PI3Ka IC50 (PI3Kα (p110α/p85α)) [nM] | IC50 (U87MG tumour cells) [nM] | IC50 (Akt-pS473 in U87MG cells) [nM]
C[C@H]1COCCN1c1ccc(NC(=O)Nc2ccc(-c3nc(N4C5CCC4COC5)nc4c3C(=O)N(C)CC(C)(C)O4)cc2F)cn1 [Example 74, 1-{2-Fluoro-4-[6,8,8-trimethyl-2-(3-oxa-8-azabicyclo[3.2.1]oct-8-yl)-5-oxo-5,6,7,8-tetrahydro-9-oxa-1,3,6-triazabenzocyclohepten-4-yl]phenyl}-3-[6-((S)-3-methylmorpholin-4-yl)pyridin-3-yl]urea] | 64 | >10000 | 126 | 31
CCN1CC(C)(C)Oc2nc(N3CC4CCC(C3)O4)nc(-c3ccc(NC(=O)NC)cc3F)c2C1=O [Example 47, 1-{4-[6-Ethyl-8,8-dimethyl-2-(8-oxa-3-azabicyclo[3.2.1]oct-3-yl)-5-oxo-5,6,7,8-tetrahydro-9-oxa-1,3,6-triazabenzocyclohepten-4-yl]-3-fluorophenyl}-3-methylurea] | 34 | >10000 | 564 | 151
CN1CC(C)(C)Oc2nc(N3CC4CCC(C3)O4)nc(-c3ccc(NC(=O)Nc4ccccn4)cc3)c2C1=O [Example 39, 1-Pyridin-2-yl-3-{4-[6,8,8-trimethyl-2-(8-oxa-3-azabicyclo[3.2.1]oct-3-yl)-5-oxo-5,6,7,8-tetrahydro-9-oxa-1,3,6-triazabenzocyclohepten-4-yl]phenyl}urea] | 26 | 5870 | 207 | 34
CCN1CC(C)(C)Oc2nc(N3CC4CCC(C3)O4)nc(-c3ccc(NC(=O)Nc4ccnc(N5CC6CCC(C5)O6)c4)c(F)c3)c2C1=O [Example 260, 1-{4-[6-Ethyl-8,8-dimethyl-2-(8-oxa-3-azabicyclo[3.2.1]oct-3-yl)-5-oxo-5,6,7,8-tetrahydro-9-oxa-1,3,6-triazabenzocyclohepten-4-yl]-2-fluorophenyl}-3-[2-(8-oxa-3-azabicyclo[3.2.1]oct-3-yl)pyridin-4-yl]urea] | 174 | >10000 | 95 | 24
CCN1CC(C)(C)Oc2nc(N3CC4CCC(C3)O4)nc(-c3ccc(NC(=O)NCC4CCN(C)CC4)c(F)c3)c2C1=O [Example 130, 1-{4-[6-Ethyl-8,8-dimethyl-2-(8-oxa-3-azabicyclo[3.2.1]oct-3-yl)-5-oxo-5,6,7,8-tetrahydro-9-oxa-1,3,6-triazabenzocyclohepten-4-yl]-2-fluorophenyl}-3-(1-methylpiperidin-4-ylmethyl)urea] | 2120 | >10000 | > 10000 | > 3000
CCN1CC(C)(C)Oc2nc(N3CCOC[C@@H]3C)nc(-c3ccc(NC(=O)Nc4cc(OC)c(F)cc4F)cc3)c2C1=O [Example 208, 1-(2,4-Difluoro-5-methoxyphenyl)-3-{4-[6-ethyl-8,8-dimethyl-2-((S)-3-methylmorpholin-4-yl)-5-oxo-5,6,7,8-tetrahydro-9-oxa-1,3,6-triazabenzocyclohepten-4-yl]phenyl}urea] | 81 | 1240 | 181 | 26
CN1CC(C)(C)Oc2nc(N3CC4CCC(C3)O4)nc(-c3ccc(NC(=O)Nc4ccncc4F)cc3)c2C1=O [Example 85, 1-(3-Fluoropyridin-4-yl)-3-{4-[6,8,8-trimethyl-2-(8-oxa-3-azabicyclo[3.2.1]oct-3-yl)-5-oxo-5,6,7,8-tetrahydro-9-oxa-1,3,6-triazabenzocyclohepten-4-yl]phenyl}urea] | 24 | 1950 | 77 | 28
CCN1CC(C)(C)Oc2nc(N3CC4CCC(C3)O4)nc(-c3ccc(NC(=O)NCC4CCS(=O)(=O)C4)c(F)c3)c2C1=O (stereo not drawn) [Example 129, 1-(1,1-Dioxotetrahydro-1λ6-thiophen-3-ylmethyl)-3-{4-[6-ethyl-8,8-dimethyl-2-(8-oxa-3-azabicyclo[3.2.1]oct-3-yl)-5-oxo-5,6,7,8-tetrahydro-9-oxa-1,3,6-triazabenzocyclohepten-4-yl]-2-fluorophenyl}urea] | 1380 | >10000 | > 10000 | > 3000
CCN1CC(C)(C)Oc2nc(N3CCOCC3)nc(-c3ccc(NC(=O)OC)cc3)c2C1=O [Example 103, [4-(6-Ethyl-8,8-dimethyl-2-morpholin-4-yl-5-oxo-5,6,7,8-tetrahydro-9-oxa-1,3,6-triazabenzocyclohepten-4-yl)phenyl]carbamic acid methyl ester] | 194 | 6590 | 3510 | 425
CC[C@H]1COCCN1c1ccc(NC(=O)Nc2ccc(-c3nc(N4CCOC[C@@H]4C)nc4c3C(=O)N(CC)CC(C)(C)O4)cc2F)cn1 [Example 248, 1-{4-[6-Ethyl-8,8-dimethyl-2-((S)-3-methylmorpholin-4-yl)-5-oxo-5,6,7,8-tetrahydro-9-oxa-1,3,6-triazabenzocyclohepten-4-yl]-2-fluorophenyl}-3-[6-((S)-3-ethylmorpholin-4-yl)pyridin-3-yl]urea] | 68 | >10000 | 96 | 29
CCN1CC(C)(C)Oc2nc(N3CCOC[C@@H]3C)nc(-c3ccc(NC(=O)Nc4cnccn4)c(F)c3)c2C1=O [Example 160, 1-{4-[6-Ethyl-8,8-dimethyl-2-((S)-3-methylmorpholin-4-yl)-5-oxo-5,6,7,8-tetrahydro-9-oxa-1,3,6-triazabenzocyclohepten-4-yl]-2-fluorophenyl}-3-pyrazin-2-ylurea] | 41 | 4900 | 744 | 114
CCN1CC(C)(C)Oc2nc(N3CCOC[C@@H]3C)nc(-c3ccc(NC(=O)Nc4ccccc4F)cc3)c2C1=O [Example 202, 1-{4-[6-Ethyl-8,8-dimethyl-2-((S)-3-methylmorpholin-4-yl)-5-oxo-5,6,7,8-tetrahydro-9-oxa-1,3,6-triazabenzocyclohepten-4-yl]phenyl}-3-(2-fluorophenyl)urea] | 19 | 213 | 73 | 5
CCN1CC(C)(C)Oc2nc(N3CC4CCC(C3)O4)nc(-c3ccc(NC(=O)Nc4ccon4)c(C)c3)c2C1=O [Example 165, 1-{4-[6-Ethyl-8,8-dimethyl-2-(8-oxa-3-azabicyclo[3.2.1]oct-3-yl)-5-oxo-5,6,7,8-tetrahydro-9-oxa-1,3,6-triazabenzocyclohepten-4-yl]-2-methylphenyl}-3-isoxazol-3-ylurea] | 180 | >10000 | 4200 | 1530
CCNC(=O)Nc1ccc(-c2nc(N3CC4CCC(C3)O4)nc3c2C(=O)N(CCC(=O)OC(C)(C)C)CC(C)(C)O3)cc1 [Example 120, 3-[4-[4-(3-Ethylureido)phenyl]-8,8-dimethyl-2-(8-oxa-3-azabicyclo[3.2.1]oct-3-yl)-5-oxo-7,8-dihydro-5H-9-oxa-1,3,6-triazabenzocyclohepten-6-yl]propionic acid tert-butyl ester] | 351 | >10000 | 2260 | 1180
COCCN1CC(C)(C)Oc2nc(N3CC4CCC(C3)O4)nc(-c3ccc(NC(=O)Nc4ccc(OC)nc4)c(F)c3)c2C1=O [Example 178, 1-{2-Fluoro-4-[6-(2-methoxyethyl)-8,8-dimethyl-2-(8-oxa-3-azabicyclo[3.2.1]oct-3-yl)-5-oxo-5,6,7,8-tetrahydro-9-oxa-1,3,6-triazabenzocyclohepten-4-yl]phenyl}-3-(6-methoxypyridin-3-yl)urea] | 45 | >10000 | 252 | 104
CCN1CC(C)(C)Oc2nc(N3CC4CCC(C3)O4)nc(-c3ccc(Nc4nc5ccccc5[nH]4)cc3)c2C1=O [Example 118, 4-[4-(1H-Benzimidazol-2-ylamino)phenyl]-6-ethyl-8,8-dimethyl-2-(8-oxa-3-azabicyclo[3.2.1]oct-3-yl)-7,8-dihydro-6H-9-oxa-1,3,6-triazabenzocyclohepten-5-one] | 58 | 5040 | 233 | 32
CCNC(=O)Nc1ccc(-c2nc(N3CC4CCC(C3)O4)nc3c2C(=O)N(C2CCN(C)CC2)CC(C)(C)O3)cc1 [Example 132, 1-{4-[8,8-Dimethyl-6-(1-methylpiperidin-4-yl)-2-(8-oxa-3-azabicyclo[3.2.1]oct-3-yl)-5-oxo-5,6,7,8-tetrahydro-9-oxa-1,3,6-triazabenzocyclohepten-4-yl]phenyl}-3-ethylurea] | 245 | 4320 | > 10000 | > 3000
CCOC(=O)Nc1ccc(-c2nc(N3CC4CCC(C3)O4)nc3c2C(=O)N(CC)CC(C)(C)O3)cc1 [Example 106, {4-[6-Ethyl-8,8-dimethyl-2-(8-oxa-3-azabicyclo[3.2.1]oct-3-yl)-5-oxo-5,6,7,8-tetrahydro-9-oxa-1,3,6-triazabenzocyclohepten-4-yl]phenyl}carbamic acid ethyl ester] | 442 | >10000 | 6560 | 767
